Laboratory results published in patent US20080194653A1, “Therapeutic Agent For Solid Tumor” (KYOWA HAKKO KOGYO CO., LTD., priority 2005, published 2008).

Columns and labels:
[1] = test system: human pancreatic cancer MIA PaCa-2 cells; assay: Cell growth inhibition test against pancreatic cancer cells (XTT); format: cell-based; settings: read-out: GI50 value (concentration of 50% growth inhibition)
Experimental: (§1) A549 cells (1000 cells/well), SK-OV-3 cells (2000 cells/well), or HCT 116 cells (1000 cells/well) were seeded in each well of 96-well plates (Nunc, catalog No. 167008), and cultured overnight. Test compounds diluted stepwise were added, and the cells were further cultured for 72 hours (final volume: 100 μL/well). Fifty μL XTT labeling mixture of Cell Proliferation Kit II (XTT) (Roche Diagnostics, catalog No. 1465015) was added to each well, and the plates were incubated at 37° C. After 1 to 3 hours, absorbance at 490 nm (reference wavelength: 655 nm) was measured with a plate reader (Molecular Device, SpectraMax 340PC^384). Growth ratios of the cells in the wells treated with the test compounds were calculated based on the growth ratio of the cells in the control well treated with solvent (dimethyl sulfoxide (DMSO)) for 72 hours, which was defined as 100%.
(§2) As cancer cell lines, human pancreatic cancer MIA PaCa-2 cells (JCRB No. 0070), human cervical cancer HeLa cells (ATCC No. CCL-2), human breast cancer MDA-MB-468 cells (ATCC No. HTB-132), human prostate cancer DU 145 cells (ATCC No. HTB-81), human skin cancer SK-MEL-28 cells (ATCC No. HTB-72), human head and neck cancer KB cells (JCRB No. 9027), human renal cancer 786-0 cells (ATCC No. CRL-1932), and human liver cancer Hep G2 cells (ATCC No. HB-8065) were used. The cells were cultured at 37° C. in a 5% carbon dioxide atmosphere (except for the human breast cancer MDA-MB-468 cells, which were cultured under the condition at 37° C.) by using the mediums mentioned below, respectively.
(§3) In the same manner as that in Test Example 1, the cells were seeded (500 to 4000 cells/well, respectively) in each well of 96-well plates (Nunc, catalog No. 167008), and growth ratios of the cells treated with test compounds were calculated. The measurement of absorbance was performed at 1.5 to 3 hours after the addition of the XTT labeling mixture.

[2] = test system: human liver cancer Hep G2 cells; assay: Cell growth inhibition test against liver cancer cells (XTT); format: cell-based; settings: HepG2, read-out: GI50 value (concentration of 50% growth inhibition)
Experimental: as §1, §2, §3

[3] = test system: human cervical cancer HeLa cells; assay: Cell growth inhibition test against cervical cancer cells (XTT); format: cell-based; settings: read-out: GI50 value (concentration of 50% growth inhibition)
Experimental: as §1, §2, §3

[4] = test system: human renal cancer 786-0 cells; assay: Cell growth inhibition test against renal cancer cells (XTT); format: cell-based; settings: read-out: GI50 value (concentration of 50% growth inhibition)
Experimental: as §1, §2, §3

[5] = test system: human ovarian cancer SK-OV-3 cells; assay: Cell growth inhibition test against ovarian cancer cells (XTT); format: cell-based; settings: read-out: GI50 value (concentration of 50% growth inhibition), 72 hours
Experimental: (§4) As cancer cell lines, human lung cancer A549 cells (ATCC No. CCL-185), human ovarian cancer SK-OV-3 cells (ATCC No. HTB-77), and human colon cancer HCT 116 cells (ATCC No. CCL-247) were used. For the culture of A549 cells, Nutrient Mixture F-12K medium (Invitrogen, catalog No. 21127-022) containing 10% fetal bovine serum (Invitrogen, catalog No. 10099-141), 100 units/mL penicillin (Invitrogen, catalog No. 15140-122), and 100 μg/mL streptomycin (Invitrogen, catalog No. 15140-122) was used. For the culture of SK-OV-3 cells and HCT 116 cells, McCoy's 5A medium (Invitrogen, catalog No. 16600-082) containing 10% fetal bovine serum (Invitrogen, catalog No. 10099-141), 100 units/mL penicillin (Invitrogen, catalog No. 15140-122), and 100 μg/mL streptomycin (Invitrogen, catalog No. 15140-122) was used. The cells were cultured at 37° C. in a 5% carbon dioxide atmosphere.
as §1

[6] = test system: human prostate cancer DU 145 cells; assay: Cell growth inhibition test against prostate cancer cells (XTT); format: cell-based; settings: read-out: GI50 value (concentration of 50% growth inhibition)
Experimental: as §1, §2, §3

[7] = test system: human head and neck cancer KB cells; assay: Cell growth inhibition test against head and neck cancer cells (XTT); format: cell-based; settings: read-out: GI50 value (concentration of 50% growth inhibition)
Experimental: as §1, §2, §3

[8] = test system: human breast cancer MDA-MB-468 cells; assay: Cell growth inhibition test against breast cancer cells (XTT); format: cell-based; settings: read-out: GI50 value (concentration of 50% growth inhibition)
Experimental: as §1, §2, §3

[9] = test system: human skin cancer SK-MEL-28 cells; assay: Cell growth inhibition test against skin cancer cells (XTT); format: cell-based; settings: read-out: GI50 value (concentration of 50% growth inhibition)
Experimental: as §1, §2, §3

[10] = target: T1, recombinant human Eg5 motor domain protein (Homo sapiens, UniProt P52732); assay: Eg5 enzyme inhibition test (ATPase activity); format: biochemical; settings: for IC50: 30° C., 30 minutes, absorbance at 360 nm, read-out: Inhibition ratios (IC50) on the ATPase activity of Eg5
T1 construct: A plasmid expressing the motor domain of human Eg5 was constructed; made in house; host or cells: Escherichia coli BL21 (DE3)
T1 sequence (P52732 18-359 limits assumed): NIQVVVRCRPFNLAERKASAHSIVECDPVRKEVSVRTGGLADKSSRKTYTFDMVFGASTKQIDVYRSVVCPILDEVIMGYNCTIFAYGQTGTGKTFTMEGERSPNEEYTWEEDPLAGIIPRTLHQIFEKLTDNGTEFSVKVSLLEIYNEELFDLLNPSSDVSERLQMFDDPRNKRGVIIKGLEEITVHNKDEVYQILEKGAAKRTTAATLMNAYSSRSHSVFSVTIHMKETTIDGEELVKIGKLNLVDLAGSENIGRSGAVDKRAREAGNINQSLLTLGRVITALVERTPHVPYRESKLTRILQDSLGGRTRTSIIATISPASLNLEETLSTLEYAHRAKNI
Experimental: A recombinant human Eg5 motor domain protein was prepared by referring to the literature [Biochemistry, Vol. 35, p. […] A plasmid expressing the motor domain of human Eg5 was constructed, and transformed into Escherichia coli BL21 (DE3). The transformant was cultured at 25° C., and when the OD600 reached 0.74, isopropyl-β-D-thiogalactoside was added at a final concentration of 0.5 mmol/L. The transformant was further cultured for 4 hours, and then the culture medium was centrifuged to collect the cells. The cells were suspended in a buffer and ultrasonicated, and then the sonicated solution was centrifuged to recover the supernatant. The supernatant was purified by cation exchange column chromatography to obtain a partially purified sample. Furthermore, the partially purified sample was purified by gel filtration column chromatography to obtain a finally purified sample.
Measurement of the ATPase activity of Eg5 was carried out by referring to the literatures [EMBO Journal, Vol. 13, p. […] Solution A was dispensed into each well of a 96-well plate as 45 μL portions. Solution B was used to serially dilute a test compound. The diluted test compound solutions in a volume of 30 μL were mixed with Solution A added beforehand in each well of the 96-well plate to start the enzymatic reaction. The enzymatic reaction was performed at 30° C. for 30 minutes. […] The relative activity was calculated to calculate IC50 value.

[11] = test system: human lung cancer A549 cells; assay: Cell growth inhibition test against lung cancer cells (XTT); format: cell-based; settings: read-out: GI50 value (concentration of 50% growth inhibition), 72 hours
Experimental: as §4, §1

[12] = test system: human colon cancer HCT 116 cells; assay: Cell growth inhibition test against colon cancer cells (XTT); format: cell-based; settings: read-out: GI50 value (concentration of 50% growth inhibition), 72 hours
Experimental: as §4, §1

Structure (SMILES) | GI50 [1] [µM] | GI50 [2] [µM] | GI50 [3] [µM] | GI50 [4] [µM] | GI50 [5] [µM] | GI50 [6] [µM] | GI50 [7] [µM] | GI50 [8] [µM] | GI50 [9] [µM] | IC50 [10] [µM] | GI50 [11] [µM] | GI50 [12] [µM] | melting point [°C] | Inhibition of the ATPase activity of Eg5 (in words) [10]
CC(C)(C)C(=O)NC1=NN(C(=O)C(C)(C)C)C(CCCC(=O)NCCO)(c2ccccc2)S1 (single isomer, unassigned) [Compound o, 4-[3-(2,2-Dimethylpropionyl)-5-(2,2-dimethylpropionylamino)-2-phenyl-2,3-dihydro-1,3,4-thiadiazol-2-yl]-N-(2-hydroxyethyl)butanamide] | < 10 | < 10 | < 10 | < 10 | < 10 | < 10 | < 10 | < 10 | < 10 | < 0.1 | < 10 | < 0.1 | – | inhibited the ATPase activity of Eg5 in a concentration-dependent manner
CC(C)(C)C(=O)NC1=NN(C(=O)C(C)(C)C)C(CCNS(C)(=O)=O)(c2ccccc2)S1 (single isomer, unassigned; (-)) [Compound a, (−)-N-[4-(2,2-Dimethylpropionyl)-5-(2-methanesulfonylaminoethyl)-5-phenyl-4,5-dihydro-1,3,4-thiadiazol-2-yl]-2,2-dimethylpropanamide] | < 10 | < 10 | < 10 | < 10 | < 10 | < 10 | < 10 | < 10 | < 10 | < 0.1 | < 10 | < 0.1 | 204 to 206 | inhibited the ATPase activity of Eg5 in a concentration-dependent manner
CCC(=O)N1N=C(N2CCCC2=O)SC1(CCNS(C)(=O)=O)c1ccccc1 (single isomer, unassigned; (-)) [Compound e, (−)-N-{2-[5-(2-Oxopyrrolidin-1-yl)-2-phenyl-3-propionyl-2,3-dihydro-1,3,4-thiadiazol-2-yl]ethyl}methanesulfonamide] | < 10 | < 10 | < 10 | < 10 | < 10 | < 10 | < 10 | < 10 | < 10 | < 0.1 | < 10 | < 0.1 | 188 to 191 | inhibited the ATPase activity of Eg5 in a concentration-dependent manner

The next lines start with results.

GI50 [1] [µM] | GI50 [2] [µM] | GI50 [3] [µM] | GI50 [4] [µM] | GI50 [5] [µM] | GI50 [6] [µM] | GI50 [7] [µM] | GI50 [8] [µM] | GI50 [9] [µM] | IC50 [10] [µM] | GI50 [11] [µM] | GI50 [12] [µM] | melting point [°C] | Structure (SMILES) | Inhibition of the ATPase activity of Eg5 (in words) [10]
< 10 | < 10 | < 10 | < 10 | < 10 | < 10 | < 10 | < 10 | < 10 | < 0.1 | < 10 | < 0.1 | – | CC(C)C(=O)N1N=C(NC(=O)C(C)(C)C)SC1(CCNS(C)(=O)=O)c1ccccc1 (single isomer, unassigned; (-)) [Compound d, (−)-N-[4-Isobutyryl-5-(2-methanesulfonylaminoethyl)-5-phenyl-4,5-dihydro-1,3,4-thiadiazol-2-yl]-2,2-dimethylpropanamide] | inhibited the ATPase activity of Eg5 in a concentration-dependent manner
< 10 | < 10 | < 10 | < 10 | < 10 | < 10 | < 10 | < 10 | < 10 | – | < 10 | < 0.1 | 101 to 104 | CN(C)CCS(=O)(=O)NCC1(c2ccccc2)SC(NC(=O)C(C)(C)C)=NN1C(=O)C(C)(C)C (single isomer, unassigned; (-)) [Compound m, (−)-N-[5-(2-Dimethylaminoethanesulfonylaminomethyl)-4-(2,2-dimethyl-propionyl)-5-phenyl-4,5-dihydro-1,3,4-thiadiazol-2-yl]-2,2-dimethylpropanamide] | –
< 10 | < 10 | < 10 | < 10 | < 10 | < 10 | < 10 | < 10 | < 10 | – | < 10 | < 0.1 | 92 to 95 | CN(C)CCCS(=O)(=O)NCC1(c2ccccc2)SC(NC(=O)C(C)(C)C)=NN1C(=O)C(C)(C)C (single isomer, unassigned; (-)) [Compound n, (−)-N-[5-(3-Dimethylaminopropanesulfonylaminomethyl)-4-(2,2-dimethylpropionyl)-5-phenyl-4,5-dihydro-1,3,4-thiadiazol-2-yl]-2,2-dimethyl-propanamide] | –
